Tests used:
[1] = system: elav-Gal4GS > UAS-hTDP-43 transgenic flies; test: Lifespan of transgenic hTDP-43 Drosophila; format: in vivo; conditions: 100 nM compound, log rank test versus DMSO
[2] = biological target: CDC like kinase 1 (CLK1) (Homo sapiens, UniProt P49759); test: KinomeScan screening, CLK1; format: binding; conditions: 10 μM
[3] = biological target: DYRK1B (Homo sapiens, UniProt Q9Y463); test: KinomeScan screening, DYRK1B; format: binding; conditions: 10 μM
[4] = biological target: CK-1α1 (Homo sapiens, UniProt P48729); test: KinomeScan screening, CK-1α1; format: binding; conditions: 10 μM
[5] = biological target: platelet-derived growth factor receptor (PDGFRB) (Homo sapiens, UniProt P09619); test: KinomeScan screening, PDGFRB; format: binding; conditions: 10 μM
[6] = biological target: fms-related tyrosine kinase 1 (FLT1) (Homo sapiens, UniProt P17948); test: KinomeScan screening, FLT1; format: binding; conditions: 10 μM
[7] = biological target: CDC like kinase 4 (CLK4) (Homo sapiens, UniProt Q9HAZ1); test: KinomeScan screening, CLK4; format: binding; conditions: 10 μM
[8] = biological target: T1, CK-1δ (Homo sapiens, UniProt P48730); test: Kinetic studies on CK-1δ; format: biochemical; conditions: ATP 1 to 50 μM, casein 12.5 μM, double reciprocal plot
[9] = system: panel of 456 protein kinases; test: KinomeScan selectivity screening on a kinase panel; format: binding, human; conditions: 10 μM, 456 kinases; number of kinases bound divided by distinct kinases tested
[10] = system: TDP-43 phosphorylation (pS409/410) in HEK293 cells; test: Ethacrynic acid induced TDP-43 phosphorylation in HEK293 cells
[11] = biological target: CK-1γ2 (Homo sapiens, UniProt P78368); test: KinomeScan screening, CK-1γ2; format: binding; conditions: 10 μM
[12] = biological target: T2, myosin light chain kinase 3 (MLCK) (Homo sapiens, UniProt Q32MK0); test: KinomeScan screening, MLCK; format: binding; conditions: 10 μM
T2 sequence (Q32MK0 1-819): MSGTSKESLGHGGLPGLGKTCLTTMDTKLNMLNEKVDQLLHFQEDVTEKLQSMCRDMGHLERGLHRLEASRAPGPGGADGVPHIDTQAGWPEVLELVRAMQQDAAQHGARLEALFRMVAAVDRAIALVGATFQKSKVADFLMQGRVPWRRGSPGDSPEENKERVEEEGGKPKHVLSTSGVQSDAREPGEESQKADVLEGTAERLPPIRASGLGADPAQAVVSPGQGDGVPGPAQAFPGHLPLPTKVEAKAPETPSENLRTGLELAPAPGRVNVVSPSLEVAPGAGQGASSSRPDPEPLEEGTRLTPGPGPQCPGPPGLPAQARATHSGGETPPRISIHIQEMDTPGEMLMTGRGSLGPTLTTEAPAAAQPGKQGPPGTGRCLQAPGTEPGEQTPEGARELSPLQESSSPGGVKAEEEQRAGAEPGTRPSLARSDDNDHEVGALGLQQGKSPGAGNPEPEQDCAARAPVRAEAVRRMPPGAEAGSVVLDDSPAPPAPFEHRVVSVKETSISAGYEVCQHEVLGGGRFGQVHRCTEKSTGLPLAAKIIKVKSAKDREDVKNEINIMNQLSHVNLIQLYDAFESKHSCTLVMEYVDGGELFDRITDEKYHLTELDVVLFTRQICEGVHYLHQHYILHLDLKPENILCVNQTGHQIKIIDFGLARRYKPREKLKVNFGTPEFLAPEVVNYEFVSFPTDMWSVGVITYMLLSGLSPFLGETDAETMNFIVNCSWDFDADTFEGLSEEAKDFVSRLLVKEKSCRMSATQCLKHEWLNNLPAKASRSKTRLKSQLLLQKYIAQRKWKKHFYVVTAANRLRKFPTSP

[13] = biological target: T1, CK-1δ; test: KinomeScan screening, CK-1δ; format: binding; conditions: 10 μM
[14] = biological target: DYRK1A (Homo sapiens, UniProt Q13627); test: KinomeScan screening, DYRK1A; format: binding; conditions: 10 μM
[15] = biological target: CK-1ε (Homo sapiens, UniProt P49674); test: KinomeScan screening, CK-1ε; format: binding; conditions: 10 μM
[16] = PAMPA-BBB permeability assay; conditions: PAMPA vehicle PBS:EtOH (70:30)
[17] = biological target: T1, CK-1δ; format: biochemical
[18] = system: 290 kinases panel; conditions: cited from earlier work
[19] = system: amyotrophic lateral sclerosis (ALS); conditions: ALS patients; cited from earlier work
[20] = HEK293, 1.5 h pretreatment, 150 μM ethacrynic acid

T1 sequence (P48730 whole entry): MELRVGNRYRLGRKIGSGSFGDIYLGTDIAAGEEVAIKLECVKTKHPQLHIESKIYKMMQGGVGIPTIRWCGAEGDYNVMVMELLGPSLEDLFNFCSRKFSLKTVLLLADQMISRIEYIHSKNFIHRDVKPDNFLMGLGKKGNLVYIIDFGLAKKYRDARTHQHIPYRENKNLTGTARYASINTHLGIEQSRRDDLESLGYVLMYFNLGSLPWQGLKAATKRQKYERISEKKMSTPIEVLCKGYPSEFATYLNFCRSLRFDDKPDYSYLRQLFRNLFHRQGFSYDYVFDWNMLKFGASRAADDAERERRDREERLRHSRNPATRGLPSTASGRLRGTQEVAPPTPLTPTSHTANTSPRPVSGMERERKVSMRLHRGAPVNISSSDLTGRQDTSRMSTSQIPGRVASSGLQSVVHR
Chain of CK-1α1 (P48729 whole entry): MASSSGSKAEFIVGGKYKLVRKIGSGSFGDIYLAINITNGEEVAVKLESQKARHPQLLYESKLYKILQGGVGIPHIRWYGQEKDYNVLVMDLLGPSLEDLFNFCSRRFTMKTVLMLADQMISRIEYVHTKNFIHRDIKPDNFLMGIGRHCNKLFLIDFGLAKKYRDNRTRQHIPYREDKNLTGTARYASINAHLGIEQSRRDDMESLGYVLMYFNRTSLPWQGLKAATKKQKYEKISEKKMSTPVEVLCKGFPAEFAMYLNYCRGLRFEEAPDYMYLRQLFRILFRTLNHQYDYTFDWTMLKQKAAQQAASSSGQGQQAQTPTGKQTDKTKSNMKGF
Chain of CK-1γ2 (P78368 whole entry): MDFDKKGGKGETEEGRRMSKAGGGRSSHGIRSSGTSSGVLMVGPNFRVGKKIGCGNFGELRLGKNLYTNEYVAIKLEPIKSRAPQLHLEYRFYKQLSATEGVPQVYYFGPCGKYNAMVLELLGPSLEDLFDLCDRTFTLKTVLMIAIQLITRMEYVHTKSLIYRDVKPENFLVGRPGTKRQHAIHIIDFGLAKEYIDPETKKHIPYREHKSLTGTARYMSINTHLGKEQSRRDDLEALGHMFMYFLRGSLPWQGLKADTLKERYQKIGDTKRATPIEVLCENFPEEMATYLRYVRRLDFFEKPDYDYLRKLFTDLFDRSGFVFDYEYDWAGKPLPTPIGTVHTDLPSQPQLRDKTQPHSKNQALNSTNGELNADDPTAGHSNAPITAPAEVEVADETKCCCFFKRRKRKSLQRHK
Chain of CDC like kinase 1 (CLK1) (P49759 whole entry): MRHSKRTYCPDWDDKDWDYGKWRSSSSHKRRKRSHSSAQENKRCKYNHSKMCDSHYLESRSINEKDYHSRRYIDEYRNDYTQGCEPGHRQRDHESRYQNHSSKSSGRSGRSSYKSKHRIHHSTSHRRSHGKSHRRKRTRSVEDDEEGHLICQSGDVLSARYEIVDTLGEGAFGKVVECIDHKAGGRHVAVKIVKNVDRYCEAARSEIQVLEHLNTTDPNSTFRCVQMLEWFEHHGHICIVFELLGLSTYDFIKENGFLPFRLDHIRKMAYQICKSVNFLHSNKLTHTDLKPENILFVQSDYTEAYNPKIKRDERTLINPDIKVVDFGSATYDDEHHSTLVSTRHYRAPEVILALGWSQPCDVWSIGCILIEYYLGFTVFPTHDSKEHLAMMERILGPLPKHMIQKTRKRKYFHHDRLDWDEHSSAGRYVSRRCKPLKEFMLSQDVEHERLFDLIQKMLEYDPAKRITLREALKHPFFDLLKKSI
Chain of CK-1ε (P49674 whole entry): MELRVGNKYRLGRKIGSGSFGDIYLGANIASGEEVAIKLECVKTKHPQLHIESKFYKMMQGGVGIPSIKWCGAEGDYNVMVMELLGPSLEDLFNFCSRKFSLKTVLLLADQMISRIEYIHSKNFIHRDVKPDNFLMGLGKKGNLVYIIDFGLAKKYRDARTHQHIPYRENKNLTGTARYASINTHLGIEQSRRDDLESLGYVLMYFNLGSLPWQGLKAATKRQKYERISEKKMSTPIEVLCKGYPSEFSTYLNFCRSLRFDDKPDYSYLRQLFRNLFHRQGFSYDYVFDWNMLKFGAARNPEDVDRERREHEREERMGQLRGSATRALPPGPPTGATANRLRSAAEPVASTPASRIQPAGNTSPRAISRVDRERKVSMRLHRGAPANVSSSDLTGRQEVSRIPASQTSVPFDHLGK
Chain of platelet-derived growth factor receptor (PDGFRB) (P09619 33-1106): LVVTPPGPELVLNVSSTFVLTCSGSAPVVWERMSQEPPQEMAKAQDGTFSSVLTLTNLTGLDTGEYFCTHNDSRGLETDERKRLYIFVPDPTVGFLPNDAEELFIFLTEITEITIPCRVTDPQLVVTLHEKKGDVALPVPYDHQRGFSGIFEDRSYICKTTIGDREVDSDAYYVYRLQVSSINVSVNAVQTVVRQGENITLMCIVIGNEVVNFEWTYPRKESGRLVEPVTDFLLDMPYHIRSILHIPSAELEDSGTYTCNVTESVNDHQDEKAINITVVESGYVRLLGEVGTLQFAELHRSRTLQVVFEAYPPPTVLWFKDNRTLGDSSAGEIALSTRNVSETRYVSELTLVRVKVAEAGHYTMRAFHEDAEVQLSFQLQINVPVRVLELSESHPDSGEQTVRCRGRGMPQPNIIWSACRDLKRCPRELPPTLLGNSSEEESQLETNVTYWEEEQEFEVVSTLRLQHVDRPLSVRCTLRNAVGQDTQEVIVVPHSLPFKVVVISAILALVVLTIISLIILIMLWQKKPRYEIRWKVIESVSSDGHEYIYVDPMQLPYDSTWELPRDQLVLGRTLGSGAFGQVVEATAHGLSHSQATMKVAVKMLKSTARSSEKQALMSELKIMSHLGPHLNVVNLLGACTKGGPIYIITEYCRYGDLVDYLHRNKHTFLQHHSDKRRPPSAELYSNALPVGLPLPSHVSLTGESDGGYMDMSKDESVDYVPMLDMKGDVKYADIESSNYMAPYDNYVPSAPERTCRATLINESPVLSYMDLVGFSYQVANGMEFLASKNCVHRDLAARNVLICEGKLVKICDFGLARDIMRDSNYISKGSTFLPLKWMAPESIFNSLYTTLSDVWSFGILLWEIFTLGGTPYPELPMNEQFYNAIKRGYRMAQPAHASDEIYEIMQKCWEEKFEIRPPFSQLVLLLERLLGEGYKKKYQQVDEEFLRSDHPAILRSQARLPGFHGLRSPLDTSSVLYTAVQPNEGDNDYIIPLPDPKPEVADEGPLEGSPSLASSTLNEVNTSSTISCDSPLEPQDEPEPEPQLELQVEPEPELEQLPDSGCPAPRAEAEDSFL
Chain of CDC like kinase 4 (CLK4) (Q9HAZ1 whole entry): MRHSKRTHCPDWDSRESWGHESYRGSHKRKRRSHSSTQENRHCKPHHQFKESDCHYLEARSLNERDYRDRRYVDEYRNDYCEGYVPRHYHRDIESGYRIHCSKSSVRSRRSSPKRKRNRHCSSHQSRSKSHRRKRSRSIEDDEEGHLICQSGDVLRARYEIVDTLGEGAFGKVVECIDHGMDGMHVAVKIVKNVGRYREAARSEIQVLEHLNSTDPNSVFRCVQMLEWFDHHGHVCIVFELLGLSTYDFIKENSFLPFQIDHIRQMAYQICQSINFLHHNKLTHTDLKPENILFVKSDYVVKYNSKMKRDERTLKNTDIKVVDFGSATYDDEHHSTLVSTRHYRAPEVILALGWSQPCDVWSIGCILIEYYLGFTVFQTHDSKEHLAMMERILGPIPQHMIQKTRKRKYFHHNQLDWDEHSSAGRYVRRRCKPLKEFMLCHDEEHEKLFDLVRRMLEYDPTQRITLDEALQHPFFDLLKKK
Chain of fms-related tyrosine kinase 1 (FLT1) (P17948 27-1338): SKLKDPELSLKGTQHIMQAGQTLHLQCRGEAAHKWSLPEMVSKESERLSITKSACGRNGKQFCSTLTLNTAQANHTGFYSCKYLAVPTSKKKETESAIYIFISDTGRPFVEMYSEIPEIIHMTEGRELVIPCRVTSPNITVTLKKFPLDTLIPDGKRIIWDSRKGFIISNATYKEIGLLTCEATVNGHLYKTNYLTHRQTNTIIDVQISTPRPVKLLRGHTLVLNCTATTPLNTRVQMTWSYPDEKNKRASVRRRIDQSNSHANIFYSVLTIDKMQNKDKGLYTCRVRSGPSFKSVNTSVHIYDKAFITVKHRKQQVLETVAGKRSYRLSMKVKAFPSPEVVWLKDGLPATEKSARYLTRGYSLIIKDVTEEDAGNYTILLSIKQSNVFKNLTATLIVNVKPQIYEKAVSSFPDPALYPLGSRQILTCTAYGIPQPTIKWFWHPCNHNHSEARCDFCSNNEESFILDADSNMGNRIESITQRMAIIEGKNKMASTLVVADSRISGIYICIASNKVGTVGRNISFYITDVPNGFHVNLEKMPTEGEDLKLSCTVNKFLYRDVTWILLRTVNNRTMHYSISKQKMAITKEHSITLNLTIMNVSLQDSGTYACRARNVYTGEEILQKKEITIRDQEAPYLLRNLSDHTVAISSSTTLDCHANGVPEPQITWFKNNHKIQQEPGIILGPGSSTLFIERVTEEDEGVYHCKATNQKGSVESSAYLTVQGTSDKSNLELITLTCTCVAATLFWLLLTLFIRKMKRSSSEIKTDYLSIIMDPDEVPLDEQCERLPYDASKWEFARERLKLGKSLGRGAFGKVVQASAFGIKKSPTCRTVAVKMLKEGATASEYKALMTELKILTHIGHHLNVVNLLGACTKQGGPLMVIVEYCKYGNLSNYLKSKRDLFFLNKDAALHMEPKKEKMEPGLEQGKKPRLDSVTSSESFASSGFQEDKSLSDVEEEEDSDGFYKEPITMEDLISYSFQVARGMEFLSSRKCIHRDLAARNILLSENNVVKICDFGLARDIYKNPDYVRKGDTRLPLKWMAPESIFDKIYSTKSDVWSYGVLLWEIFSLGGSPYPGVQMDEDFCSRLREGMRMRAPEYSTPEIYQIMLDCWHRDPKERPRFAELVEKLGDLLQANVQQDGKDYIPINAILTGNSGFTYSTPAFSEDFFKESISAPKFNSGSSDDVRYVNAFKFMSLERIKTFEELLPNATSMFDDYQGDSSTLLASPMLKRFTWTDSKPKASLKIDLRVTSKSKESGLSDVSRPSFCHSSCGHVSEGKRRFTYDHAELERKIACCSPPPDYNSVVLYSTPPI

## O=C(Cc1ccc(Cl)cc1)Oc1nc2ccccc2s1 [Compound 9, (Benzothiazol-2-yl)-2-(4-chlorophenyl)acetate]
[1]
  effect on fly lifespan: did not significantly modify fly longevity

## O=C(Cc1cccc(Cl)c1)Nc1nc2ccc(C(F)(F)F)cc2s1 [Compound 20, 2-(3-Chlorophenyl)-N-(6-(trifluoromethyl)benzothiazol-2-yl)acetamide]
[2]
  inhibition of CLK1: inhibited
[3]
  inhibition of DYRK1B: inhibited
[4]
  inhibition of CK-1α1: inhibited
[5]
  inhibition of PDGFRB: inhibited
[6]
  inhibition of FLT1: inhibited
[7]
  inhibition of CLK4: inhibited
[8]
  mechanism of CK-1δ inhibition with respect to ATP: ATP competitive inhibition
[9]
  selectivity score (S score): 0.04
[1]
  effect on fly lifespan: significantly increased
[10]; [20]
  concentration with inhibition of TDP-43 phosphorylation: above 80 μM
[11]
  inhibition of CK-1γ2: inhibited
[12]
  inhibition of MLCK: inhibited
[13]
  inhibition of CK-1δ: inhibited
[14]
  inhibition of DYRK1A: inhibited
[15]
  inhibition of CK-1ε: inhibited

## O=C(Cc1ccccc1Cl)Nc1nc2ccc(C(F)(F)F)cc2s1 [Compound 24, 2-(2-Chlorophenyl)-N-(6-(trifluoromethyl)benzothiazol-2-yl)acetamide]
[2]
  inhibition of CLK1: inhibited
[3]
  inhibition of DYRK1B: inhibited
[4]
  inhibition of CK-1α1: inhibited
[5]
  inhibition of PDGFRB: inhibited
[6]
  inhibition of FLT1: inhibited
[16]
  solubility in the assay vehicle: low solubility
[7]
  inhibition of CLK4: inhibited
[8]
  mechanism of CK-1δ inhibition with respect to ATP: ATP competitive inhibition
[1]
  effect on fly lifespan: significantly increased
[10]; [20]
  concentration with moderate inhibition of TDP-43 phosphorylation: ≥ 1.25 µM
[11]
  inhibition of CK-1γ2: inhibited
[12]
  inhibition of MLCK: inhibited
[13]
  inhibition of CK-1δ: inhibited
[14]
  inhibition of DYRK1A: inhibited
[15]
  inhibition of CK-1ε: inhibited

## COc1ccccc1CC(=O)Nc1nc2ccc(C(F)(F)F)cc2s1 [Compound 34, N-(6-(Trifluoromethyl)benzothiazol-2-yl)-2-(2-methoxyphenyl)acetamide]
[8]
  mechanism of CK-1δ inhibition with respect to ATP: ATP competitive inhibition
[10]; [20]
  concentration with inhibition of TDP-43 phosphorylation: above 80 μM

## COc1ccc2nc(NC(=O)Cc3ccccc3OC)sc2c1 [Compound 35, N-(6-Methoxybenzothiazol-2-yl)-2-(2-methoxyphenyl)acetamide]
[17]
  fold less potent than 20 and 24 as CK-1δ inhibitor: 100 fold
[1]
  effect on fly lifespan: significantly increased

## COc1cccc(CC(=O)Nc2nc3ccc(C(F)(F)F)cc3s2)c1 [Compound 38, N-(6-(Trifluoromethyl)benzothiazol-2-yl)-2-(3-methoxyphenyl)acetamide]
[10]; [20]
  concentration giving significant reduction of TDP-43 phosphorylation: 5 µM

## O=C(Cc1cccc(C(F)(F)F)c1)Nc1nc2ccc(C(F)(F)F)cc2s1 [Compound 41, N-(6-(Trifluoromethyl)benzothiazol-2-yl)-2-(3-(trifluoromethyl)phenyl)acetamide]
[10]; HEK293, by 10 μM inhibitor
  fold reduction in TDP-43 phosphorylation: greater than 2 fold

## O=C(Cc1ccccc1)Nc1nc2ccc(C(F)(F)F)cc2s1 [Compound 46, N-(6-(Trifluoromethyl)benzothiazol-2-yl)-2-phenylacetamide]
[10]; HEK293, 1.5 h pretreatment, 150 μM ethacrynic acid, range 1.25-160 μM
  concentration with nearly complete absence of TDP-43 phosphorylation: ≥ 2.5 µM

## COc1cc(OC)c(C=C2C(=O)Nc3ccccc32)c(OC)c1 [IC261, reference compound]
[8]
  mechanism of CK-1δ inhibition with respect to ATP: ATP competitive inhibitor

## CS(=O)(=O)CCNCc1ccc(-c2ccc3ncnc(Nc4ccc(OCc5cccc(F)c5)c(Cl)c4)c3c2)o1 [Lapatinib]
[18]
  S score: 0.010

## Nc1nc2ccc(OC(F)(F)F)cc2s1 [Riluzole]
[19]
  extension of survival: 2–3 months

## CCN(CC)CCNC(=O)c1c(C)[nH]c(/C=C2\C(=O)Nc3ccc(F)cc32)c1C [Sunitinib]
[18]
  S score: 0.57

Reference: PMC3969104 (Journal of Medicinal Chemistry, 2014)
